Measured values reported in US20060257448A1, “Resorbable polymer composition, implant and method of making implant” (The University of Zurich, priority 2005, published 2006).

tested on: MC3T3-E1 cells; assay: Alkaline phosphatase activity (maturation) of MC3T3-E1 preosteoblastic cells; format: cell-based; conditions: increasing amounts of solvent (triacetin 0 to 6 mM); determined after 6 days; FIG. 2
Description: To compare the effect of various plasticizer regarding their osteogenetic effect to that of triacetin, MC3T3-E1 cells were grown in an alpha-modified Minimum Essential Medium (Life Technologies, Inc., Grand Island, N.Y.) containing 10% fetal calf serum (Life Technologies, Inc.), 50 μg/ml gentamycin, and 50 μg/ml ascorbic acid. To examine the action of triacetin on this cell line, 1×10^5 cells per well were plated in 6-well plates and triacetin subsequently added. Medium exchange was performed after 3 days and alkaline phosphatase (ALP) was determined according to Lowry, O. et al. [J. Biol. Chem. 207 (1954) 19-37]: p-nitrophenol liberated was converted to p-nitrophenylate by adding 400 μl of 1 M NaOH, which was quantitated by measuring the absorbance at 410 nm (epsilon=17500/mol×cm). Alkaline phosphatase activity was normalized to total protein and expressed as nmol nitrophenylate generated per min per mg protein.
MC3T3-E1 cells were treated with increasing amounts of different solvents and the effect on the maturation of MC3T3-E1 cells determined after 6 days by alkaline phosphatase activity.

Structure (SMILES)	Maturation of MC3T3-E1 cells determined by alkaline phosphatase activity
CN(C)C=O [N,N-dimethylformamide]	no positive effect
C[S+](C)[O-] [dimethylsulfoxide]	no positive effect
CCO [ethanol]	no positive effect
CO [methanol]	no positive effect
CC(=O)OCC(COC(C)=O)OC(C)=O [triacetin, 1,2,3-Triacetoxypropane]	increases in a concentration dependent manner
